Assay results reported in ChEMBL document CHEMBL3046322, “Insect growth regulatory effects by diterpenes from Calceolaria talcana Grau & Ehrhart (Calceolariaceae: Scrophulariaceae) against Spodoptera frugiperda and Drosophila melanogaster” (2013).
Values after ≈ are worked out from the molar mass of the structure shown. Active and inactive are the calls of the source. No cut-off for these calls is given here.

Key:
Spodoptera frugiperda [1] = assay: Growth inhibitory activity against first-instar larval stage of Spodoptera frugiperda (fall armyworm) fed with compound incorporated diet assessed as weight gained at 35 ug/ml after 7 days (reference value: 100%); format: functional; design: scale not given: the % may be the effect or the level left
Spodoptera frugiperda [2] = assay: Growth inhibitory activity against first-instar larval stage of Spodoptera frugiperda (fall armyworm) fed with compound incorporated diet assessed as weight gained at 20 ug/ml after 7 days (reference value: 100%); format: functional; design: scale not given: the % may be the effect or the level left
Spodoptera frugiperda [3] = assay: Growth inhibitory activity against first-instar larval stage of Spodoptera frugiperda (fall armyworm) fed with compound incorporated diet assessed as weight gained at 5 ug/ml after 7 days (reference value: 100%); format: functional; design: scale not given: the % may be the effect or the level left
Spodoptera frugiperda [4] = assay: Growth inhibitory activity against Spodoptera frugiperda (fall armyworm) larvae fed with compound containing diet assessed as relative growth index at 10 ug/ml (reference value: 1.0 no_unit); format: functional
Spodoptera frugiperda [5] = assay: Growth inhibitory activity against Spodoptera frugiperda (fall armyworm) larvae fed with compound containing diet assessed as relative growth index at 5 ug/ml (reference value: 1.0 no_unit); format: functional
Spodoptera frugiperda [6] = assay: Growth inhibitory activity against Spodoptera frugiperda (fall armyworm) larvae fed with compound containing diet assessed as growth index at 35 ug/ml (reference value: 0.95 +/-0.02 no_unit); format: functional
Drosophila melanogaster [7] = assay: Insecticidal activity against Drosophila melanogaster larvae fed with compound incorporated diet assessed as mortality after 72 hr by not choice test; format: functional
Spodoptera frugiperda [8] = assay: Growth inhibitory activity against Spodoptera frugiperda (fall armyworm) larvae fed with compound containing diet assessed as relative growth index at 35 ug/ml (reference value: 1.0 no_unit); format: functional
Spodoptera frugiperda [9] = assay: Growth inhibitory activity against Spodoptera frugiperda (fall armyworm) larvae fed with compound containing diet assessed as relative growth index at 20 ug/ml (reference value: 1.0 no_unit); format: functional
Spodoptera frugiperda [10] = assay: Growth inhibitory activity against Spodoptera frugiperda (fall armyworm) larvae fed with compound containing diet assessed as growth index at 10 ug/ml (reference value: 0.95 +/-0.02 no_unit); format: functional
Spodoptera frugiperda [11] = assay: Growth inhibitory activity against Spodoptera frugiperda (fall armyworm) larvae fed with compound containing diet assessed as growth index at 5 ug/ml (reference value: 0.95 +/-0.02 no_unit); format: functional
Spodoptera frugiperda [12] = assay: Growth inhibitory activity against Spodoptera frugiperda (fall armyworm) larvae fed with compound containing diet assessed as reduction in adult emergence at 35 ug/ml; format: functional
Spodoptera frugiperda [13] = assay: Growth inhibitory activity against Spodoptera frugiperda (fall armyworm) larvae fed with compound containing diet assessed as reduction in adult emergence at 20 ug/ml; format: functional
Spodoptera frugiperda [14] = assay: Growth inhibitory activity against Spodoptera frugiperda (fall armyworm) larvae fed with compound containing diet assessed as reduction in pupae weight at 25 ug/ml; format: functional, organism-based
Spodoptera frugiperda [15] = assay: Growth inhibitory activity against po dosed fourth-instar larvae of Spodoptera frugiperda (fall armyworm) assessed as proportion of prothetely appearance of precocious pupal structure in larvae after 48 to 72 hr; format: functional; design: scale not given: the % may be the effect or the level left
Spodoptera frugiperda [16] = assay: Growth inhibitory activity against po dosed Spodoptera frugiperda (fall armyworm) larvae assessed as promotion of apolysis to fifth instar with ecdysis inhibition at 5 to 20 ug/ml; format: functional, organism-based
Drosophila melanogaster [17] = assay: Insecticidal activity against Drosophila melanogaster larvae fed with compound incorporated diet assessed as mortality at 50 ug/ml after 72 hr by not choice test (reference value: 0%); format: functional
Drosophila melanogaster [18] = assay: Insecticidal activity against Drosophila melanogaster larvae fed with compound incorporated diet assessed as mortality at 20 ug/ml after 72 hr by not choice test (reference value: 0%); format: functional
Drosophila melanogaster [19] = assay: Insecticidal activity against Drosophila melanogaster larvae fed with compound incorporated diet assessed as mortality at 10 ug/ml after 72 hr by not choice test (reference value: 0%); format: functional
Spodoptera frugiperda [20] = assay: Acute toxicity against last larval stage of Spodoptera frugiperda (fall armyworm) assessed as mortality applied topically onto abdomen measured after 7 days; format: functional; details: topical, 168 h
Spodoptera frugiperda [21] = assay: Insecticidal activity against first-instar larval stage of Spodoptera frugiperda (fall armyworm) fed with compound incorporated diet assessed as mortality at 50 ug/ml after 21 days (reference value: 5.6%); format: functional; details: 504 h
Spodoptera frugiperda [22] = assay: Insecticidal activity against first-instar larval stage of Spodoptera frugiperda (fall armyworm) fed with compound incorporated diet assessed as mortality at 35 ug/ml after 21 days (reference value: 5.6%); format: functional; details: 504 h
Spodoptera frugiperda [23] = assay: Growth inhibitory activity against first-instar larval stage of Spodoptera frugiperda (fall armyworm) fed with compound incorporated diet assessed as length gained at 20 ug/ml after 21 days (reference value: 100%); format: functional; design: scale not given: the % may be the effect or the level left
Spodoptera frugiperda [24] = assay: Growth inhibitory activity against first-instar larval stage of Spodoptera frugiperda (fall armyworm) fed with compound incorporated diet assessed as length gained at 10 ug/ml after 21 days (reference value: 100%); format: functional
Spodoptera frugiperda [25] = assay: Growth inhibitory activity against first-instar larval stage of Spodoptera frugiperda (fall armyworm) fed with compound incorporated diet assessed as weight gained at 50 ug/ml after 21 days (reference value: 100%); format: functional
Spodoptera frugiperda [26] = assay: Growth inhibitory activity against first-instar larval stage of Spodoptera frugiperda (fall armyworm) fed with compound incorporated diet assessed as weight gained at 5 ug/ml after 21 days (reference value: 100%); format: functional
Spodoptera frugiperda [27] = assay: Insecticidal activity against first-instar larval stage of Spodoptera frugiperda (fall armyworm) fed with compound incorporated diet assessed as mortality at 20 ug/ml after 7 days (reference value: 5.6%); format: functional; details: 168 h
Spodoptera frugiperda [28] = assay: Insecticidal activity against first-instar larval stage of Spodoptera frugiperda (fall armyworm) fed with compound incorporated diet assessed as mortality at 35 ug/ml after 7 days (reference value: 5.6%); format: functional; details: 168 h
Spodoptera frugiperda [29] = assay: Insecticidal activity against first-instar larval stage of Spodoptera frugiperda (fall armyworm) fed with compound incorporated diet assessed as mortality at 5 ug/ml after 7 days (reference value: 5.6%); format: functional; details: 168 h
Spodoptera frugiperda [30] = assay: Insecticidal activity against first-instar larval stage of Spodoptera frugiperda (fall armyworm) fed with compound incorporated diet assessed as mortality at 20 ug/ml after 21 days (reference value: 5.6%); format: functional; details: 504 h
Spodoptera frugiperda [31] = assay: Insecticidal activity against first-instar larval stage of Spodoptera frugiperda (fall armyworm) fed with compound incorporated diet assessed as mortality at 10 ug/ml after 21 days (reference value: 5.6%); format: functional; details: 504 h
Spodoptera frugiperda [32] = assay: Growth inhibitory activity against first-instar larval stage of Spodoptera frugiperda (fall armyworm) fed with compound incorporated diet assessed as length gained at 35 ug/ml after 21 days (reference value: 100%); format: functional
Spodoptera frugiperda [33] = assay: Growth inhibitory activity against first-instar larval stage of Spodoptera frugiperda (fall armyworm) fed with compound incorporated diet assessed as length gained at 35 ug/ml after 7 days (reference value: 100%); format: functional
Spodoptera frugiperda [34] = assay: Growth inhibitory activity against first-instar larval stage of Spodoptera frugiperda (fall armyworm) fed with compound incorporated diet assessed as length gained at 50 ug/ml after 7 days (reference value: 100%); format: functional
Spodoptera frugiperda [35] = assay: Growth inhibitory activity against first-instar larval stage of Spodoptera frugiperda (fall armyworm) fed with compound incorporated diet assessed as length gained at 20 ug/ml after 7 days (reference value: 100%); format: functional
Spodoptera frugiperda [36] = assay: Growth inhibitory activity against first-instar larval stage of Spodoptera frugiperda (fall armyworm) fed with compound incorporated diet assessed as length gained at 10 ug/ml after 7 days (reference value: 100%); format: functional
Spodoptera frugiperda [37] = assay: Growth inhibitory activity against Spodoptera frugiperda (fall armyworm) larvae fed with compound containing diet assessed as reduction in survival pupation at >10 ug/ml; format: functional
Spodoptera frugiperda [38] = assay: Insecticidal activity against first-instar larval stage of Spodoptera frugiperda (fall armyworm) fed with compound incorporated diet assessed as mortality at 40 ug/ml after 7 days; format: functional, organism-based

Compound	Activity (Spodoptera frugiperda [1]) [%]	Activity (Spodoptera frugiperda [2]) [%]	Activity (Spodoptera frugiperda [3]) [%]	Growth_index (Spodoptera frugiperda [4])	Growth_index (Spodoptera frugiperda [5])	LC50 (Drosophila melanogaster [7]) [µg/mL]	Growth_index (Spodoptera frugiperda [9])	Growth_index (Spodoptera frugiperda [10])	Growth_index (Spodoptera frugiperda [11])	inhibition at 35 µg/mL (Spodoptera frugiperda [12]) [%]	inhibition at 20 µg/mL (Spodoptera frugiperda [13]) [%]	inhibition (Spodoptera frugiperda [14])	Activity (Spodoptera frugiperda [15]) [%]	Activity (Spodoptera frugiperda [16])	mortality at 50 µg/mL (Drosophila melanogaster [17]) [%]	mortality at 20 µg/mL (Drosophila melanogaster [18]) [%]	mortality at 10 µg/mL (Drosophila melanogaster [19]) [%]	mortality at 50 µg/mL (Spodoptera frugiperda [21]) [%]	mortality at 35 µg/mL (Spodoptera frugiperda [22]) [%]	Activity (Spodoptera frugiperda [23]) [%]	other results
CC(C)c1ccc2c(c1)CC[C@H]1[C@](C)(CO)CCC[C@]21C [POMIFERIN A]	42.3	56.2	89.5	0.98	0.99	16.1 (≈ 56.2 µM)	0.96	0.93	0.97	0	0	Active	30	Active	77	67	13.3	44	25	41.8	Growth_index (Spodoptera frugiperda [6]): 0.71; Growth_index (Spodoptera frugiperda [8]): 0.75; LD50 (Spodoptera frugiperda [20]): 17.5 µg/mL; Length gained relative to control (Spodoptera frugiperda [24]): 59.4%; Weight gain relative to control (Spodoptera frugiperda [25]): 33.6%; Larval weight gain relative to control (Spodoptera frugiperda [26]): 93.5%; mortality at 20 µg/mL (Spodoptera frugiperda [27]): 46.8%; mortality at 35 µg/mL (Spodoptera frugiperda [28]): 63%; mortality at 5 µg/mL (Spodoptera frugiperda [29]): 33.3%; mortality at 20 µg/mL (Spodoptera frugiperda [30]): 15%; mortality at 10 µg/mL (Spodoptera frugiperda [31]): 5.6%; Length gained relative to control (Spodoptera frugiperda [32]): 37.4%; Length gained relative to control (Spodoptera frugiperda [33]): 42.5%; Length gain relative to control (Spodoptera frugiperda [34]): 33.3%; Length gained relative to control (Spodoptera frugiperda [35]): 64.2%; Larval length gained (% of control) (Spodoptera frugiperda [36]): 79%
C[C@H]1[C@H](C)CC[C@]2(C(=O)O)CC[C@]3(C)C(=CC[C@@H]4[C@@]5(C)CC[C@H](O)C(C)(C)[C@@H]5CC[C@]43C)[C@H]12 [URSOLIC ACID]	49.2	52.5	81.5	0.73	0.98	41.3 (≈ 90.4 µM)	0.29	0.69	0.93	0	0	Active	30	Active	65.2	15.1	7	100	100	28.6	inhibition (INH) (Spodoptera frugiperda [37]): 0%; mortality (Spodoptera frugiperda [38]): Active; Length gained relative to control (Spodoptera frugiperda [24]): 48.4%; Weight gain relative to control (Spodoptera frugiperda [25]): 0%; Larval weight gain relative to control (Spodoptera frugiperda [26]): 51.9%; mortality at 20 µg/mL (Spodoptera frugiperda [27]): 29.2%; mortality at 35 µg/mL (Spodoptera frugiperda [28]): 46.8%; mortality at 5 µg/mL (Spodoptera frugiperda [29]): 4.2%; mortality at 20 µg/mL (Spodoptera frugiperda [30]): 91.7%; mortality at 10 µg/mL (Spodoptera frugiperda [31]): 81.3%; Length gained relative to control (Spodoptera frugiperda [32]): 0%; Length gained relative to control (Spodoptera frugiperda [33]): 6.7%; Length gain relative to control (Spodoptera frugiperda [34]): 3.4%; Length gained relative to control (Spodoptera frugiperda [35]): 8.9%; Larval length gained (% of control) (Spodoptera frugiperda [36]): 10.7%
